Assays:
[1] = tested on: healthy elderly volunteers; assay: Battery of psychomotor tasks after an evening tablet (Example 4); format: in vivo, human
Description: (§1) The effect of melatonin (2 mg prolonged-release formulation), N, N, 6-trimethyl-2-p-tolylimidazo[1,2-a]pyridine-3-acetamide (zolpidem; 10 mg) and placebo on psychomotor skills and driving performance were assessed in 16 healthy elderly volunteers age 59.4 years (SD 3.2). In a randomized, double-blind, crossover study the subjects were given a tablet of placebo in the evening to establish baseline and then a tablet of melatonin, zolpidem or placebo in a random order in the evening with one week with no treatment in between treatments. A battery of psychomotor tasks, driving performance and wake EEG during a driving test were studied in the patients at pre-selected intervals after the administration of the tablet.

[2] = tested on: healthy elderly volunteers; assay: Driving performance test after an evening tablet (Example 4); format: in vivo, human; details: 2 hours post-dosing; zolpidem 10 mg, melatonin prolonged release 2 mg
Description: as §1

[3] = tested on: elderly primary insomnia patients; assay: Battery of psychomotor tests to assess daytime vigilance (Example 1); format: in vivo, human; details: 2 mg prolonged-release formulation
Description: (§2) The effect of a prolonged-release formulation of melatonin on sleep quantity and quality in 40 elderly primary insomnia patients (aged 76 [SD 8] years) were studied in a randomized, double-blind, two parallel group study. The subjects were treated for 3 weeks every evening with melatonin (2 mg prolonged-release formulation) or placebo. Full-night polysomnographic recordings were performed on the last two days of treatment to measure quantitative aspects of sleep. On each morning following sleep recording in the laboratory, a battery of psychomotor tests was taken by all patients to assess daytime vigilance. In addition, patients recorded every day in diaries their perceived quality of sleep the previous night.

[4] = tested on: patients with psychophysiological insomnia; details: 5 mg at 8:00 pm for 1 week; cited from earlier work
[5] = tested on: polysomnographically pre-screened insomniacs; details: 1 and 5 mg at 10:45 pm for one night each, cited from earlier work
[6] = tested on: elderly primary insomnia patients; assay: Full-night polysomnographic recordings after 3 weeks of treatment (Example 1); format: in vivo, human
Description: as §2

[7] = tested on: primary insomnia patients (aged 20-80 years); assay: Subjectively assessed quality of sleep and daytime alertness on 100 mm line (Example 3); format: in vivo, human; details: for Change in perceived daytime alertness, mean in mm / Change in perceived quality of sleep, mean in mm: 2 mg per night prolonged-release, 3 weeks
Description: The effect of a prolonged-release formulation of melatonin on subjectively assessed sleep quality and daytime vigilance in 170 elderly primary insomnia patients (aged 68.5 [SD 8.3] years) were studied in a randomized, double-blind, two parallel group study. The subjects were treated for 2 weeks with placebo to establish baseline characteristics and then for 3 weeks with melatonin (2 mg per night of prolonged-release formulation) or placebo. On the last three days of the baseline and treatment periods patients were asked to assess the quality of their sleep the previous night and their feeling in the morning. The quality of sleep question was “How would you compare the quality of sleep using the medication with non-medicated (your usual) sleep?” The patients marked the level of their perceived quality of sleep on a 100 mm, non-hatched horizontal line with two endpoints. The left endpoint was labeled “more restless than usual” and the right endpoint was labeled “more restful than usual”. The waking state question was “How do you feel now?” The patients marked the level of their perceived waking state on a 100 mm, non-hatched horizontal line with two endpoints. The left endpoint was labeled “tired” and the right endpoint was labeled “alert”. The distance of the patient mark from the right endpoint in mm was measured (a reduction in value therefore indicates a better sleep or less tired state). The mean distance across the three nights was calculated. The effect of melatonin on subjectively assessed sleep quality and daytime vigilance in 131 primary insomnia patients (aged 20-80 years) were studied in a randomised, double-blind, parallel group study. The subjects were treated for 1 week with placebo to establish baseline characteristics and then for 3 weeks with melatonin (2 mg per night of prolonged-release formulation) or placebo. On the last three days of the baseline and treatment periods patients were asked to assess the quality of their sleep the previous night and their feeling at daytime as described in Example 2.

[8] = tested on: elderly primary insomnia patients; assay: Patient diaries of perceived quality of sleep (Example 1); format: in vivo, human; details: 2 mg prolonged-release formulation, 3 weeks
Description: as §2

insomniac patients = details: 75 mg per os at 10 PM daily for 14 consecutive days, cited from earlier work
[9] = tested on: elderly primary insomnia patients; assay: Subjectively assessed quality of sleep and daytime alertness on 100 mm line (Example 2); format: in vivo, human; details: 2 mg per night prolonged-release, 3 weeks
Description: The effect of a prolonged-release formulation of melatonin on subjectively assessed sleep quality and daytime vigilance in 170 elderly primary insomnia patients (aged 68.5 [SD 8.3] years) were studied in a randomized, double-blind, two parallel group study. The subjects were treated for 2 weeks with placebo to establish baseline characteristics and then for 3 weeks with melatonin (2 mg per night of prolonged-release formulation) or placebo. On the last three days of the baseline and treatment periods patients were asked to assess the quality of their sleep the previous night and their feeling in the morning. The quality of sleep question was “How would you compare the quality of sleep using the medication with non-medicated (your usual) sleep?” The patients marked the level of their perceived quality of sleep on a 100 mm, non-hatched horizontal line with two endpoints. The left endpoint was labeled “more restless than usual” and the right endpoint was labeled “more restful than usual”. The waking state question was “How do you feel now?” The patients marked the level of their perceived waking state on a 100 mm, non-hatched horizontal line with two endpoints. The left endpoint was labeled “tired” and the right endpoint was labeled “alert”. The distance of the patient mark from the right endpoint in mm was measured (a reduction in value therefore indicates a better sleep or less tired state). The mean distance across the three nights was calculated.

[10] = tested on: elderly patients with sleep maintenance insomnia; details: immediate and controlled release formulations, 0.5 and 5 mg, cited from earlier work
[11] = zolpidem 10 mg single evening tablet
[12] = 2 mg prolonged-release formulation, 3 weeks, versus placebo

Compound: Cc1ccc(-c2nc3ccc(C)cn3c2CC(=O)N(C)C)cc1 [zolpidem, N, N, 6-trimethyl-2-p-tolylimidazo[1,2-a]pyridine-3-acetamide]
- Memory efficiency, both recalls (immediate and delayed), compared to placebo and melatonin 2 mg ([1]; zolpidem 10 mg): decreased
- impairments compared to placebo across measures of attention, episodic secondary memory and motor coordination [1, 11]: several acute impairments
- time post-dosing by which acute impairments were resolved [1, 11]: ≤ 12.5 h
- number of collisions [2]: increased number of collisions

Compound: COc1ccc2[nH]cc(CCNC(C)=O)c2c1 [melatonin]
- Critical Flicker fusion test and total reaction time, melatonin vs. placebo ([3]; at the end of treatment): significant treatment effects
- psychomotor skills compared to placebo-treated group ([3]; morning after sleep recording): significantly higher
- patients unable to distinguish the period of active melatonin treatment [4]: 8 patients out of 15
- sleep quantity or quality [4]: no reported change
- sleep latency, sleep efficiency, total sleep time, wake after sleep onset ([5]; 10 insomniacs): did not alter
- patient-reported sleep quality [5]: improved
- rested in the morning, patient-reported [5]: not more rested
- total sleep time as believed by the patients [5]: shorter
- sleep onset latency (SL) time shortened on average, compared to placebo ([6]; 2 mg prolonged-release formulation every evening for 3 weeks, P=0.011): 9 min
- duration of wake prior sleep onset (DWAPSO) compared to placebo ([6]; 2 mg prolonged-release formulation, 3 weeks, p=0.011): improved significantly
- % of time spent asleep prior to sleep onset (DWAPSOP) compared to placebo ([6]; 2 mg prolonged-release formulation, 3 weeks, p=0.02): improved significantly
- sleep architecture or all night EEG spectral analysis [6, 12]: no differences between groups
- sleep maintenance variables (number of awakenings, DWASO, sleep efficiency, total sleep time) [6, 12]: no differences between melatonin and placebo
- quality of sleep and daytime alertness ([7]; 55 years and older patients): improvement
- Change in perceived daytime alertness, mean in mm ([7]; Patients aged 55 and over): −16.3 mm
- Change in perceived quality of sleep, mean in mm ([7]; Patients aged 55 and over): −13.1 mm
- Change in perceived daytime alertness, mean in mm ([7]; Patients aged less than 55): −4.0 mm
- Change in perceived quality of sleep, mean in mm ([7]; Patients aged less than 55): −1.6 mm
- quality of sleep and daytime alertness compared to placebo ([7]; patients <55 years of age): significant worsening
- ease of getting to sleep as evaluated in diaries, compared to placebo [8]: did not evaluate the ease of getting to sleep as being better
- quality of sleep as judged by patients in diaries [8]: improved
- subjective assessment of total sleep time and daytime alertness (insomniac patients; 13 patients): significant increase
- patients reporting no significant effect on subjective feelings of well-being (insomniac patients): 7/13
- quality of sleep and daytime alertness compared to placebo [9]: significantly improved
- Change in perceived quality of sleep, change in mm mean ([9]; 170 elderly patients, reduction = better sleep): −24.3 mm
- Change in perceived daytime alertness, change in mm mean ([9]; 170 elderly patients, reduction = less tired): −16.8 mm
- sleep latency ([10]; 30 min before sleep): reduced
- reported sleep quality or daytime measure of mood and alertness [10]: No melatonin-induced changes
- wake time after sleep onset or total sleep time [10]: did not alter

Source: patent US8962024B2, “Method for treating primary insomnia” (Neurim Pharmaceuticals (1991) Ltd, priority 2001, dated 2015)
